{
  "source": "patent US20250099494A1",
  "about": "“PHOSPHONIC ACID COMPOUND AND PRODRUG THEREOF, AND PREPARATION METHODS FOR AND USES OF PHOSPHONIC ACID COMPOUND AND PRODRUG THEREOF” (HAIHE BIOPHARMA CO., LTD., priority 2022, published 2025)",
  "key": {"[1]": {"molecular_target": "hENPP1-ECD-His (Homo sapiens (Human), UniProt P22413)", "sequence (P22413 98-925)": "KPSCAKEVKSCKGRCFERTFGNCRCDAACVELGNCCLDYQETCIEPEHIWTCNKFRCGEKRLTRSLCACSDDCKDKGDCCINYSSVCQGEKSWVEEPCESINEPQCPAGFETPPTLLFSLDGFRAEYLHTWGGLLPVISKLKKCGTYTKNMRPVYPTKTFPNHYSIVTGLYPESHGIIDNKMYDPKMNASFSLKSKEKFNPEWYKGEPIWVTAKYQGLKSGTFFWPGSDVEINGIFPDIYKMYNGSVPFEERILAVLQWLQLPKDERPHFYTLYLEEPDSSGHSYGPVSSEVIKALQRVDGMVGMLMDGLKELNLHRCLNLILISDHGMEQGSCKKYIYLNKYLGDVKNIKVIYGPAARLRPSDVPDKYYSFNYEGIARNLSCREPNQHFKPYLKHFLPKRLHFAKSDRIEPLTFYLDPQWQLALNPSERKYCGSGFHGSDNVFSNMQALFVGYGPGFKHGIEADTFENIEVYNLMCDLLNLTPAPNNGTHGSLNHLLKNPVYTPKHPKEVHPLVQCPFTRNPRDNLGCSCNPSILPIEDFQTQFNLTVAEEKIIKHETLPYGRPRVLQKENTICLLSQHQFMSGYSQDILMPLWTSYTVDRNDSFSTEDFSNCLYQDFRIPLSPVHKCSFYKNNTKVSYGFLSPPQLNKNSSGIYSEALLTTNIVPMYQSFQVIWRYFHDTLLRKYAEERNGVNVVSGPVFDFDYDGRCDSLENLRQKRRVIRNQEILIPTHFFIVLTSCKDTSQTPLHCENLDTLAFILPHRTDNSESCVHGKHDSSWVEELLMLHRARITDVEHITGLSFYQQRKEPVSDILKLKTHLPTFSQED", "experiment": "ENPP1 inhibitory activity, substrate 2',3'-cGAMP detection (AMP-Glo)", "settings": "read-out: c-GAMP (IC50, nM), inhibitory effect on ENPP1", "protocol": "The ENPP1 inhibitory activity of the compound of the present disclosure was tested in substrate 2′,3′-cGAMP detection.\nExperimental objective: based on the established experimental method, the inhibitory IC50 value of the compound in the present application on ENPP1 was detected using 2′,3′-cGAMP as the substrate.\n2. Preparation of compound concentration gradient: the tested compound was dissolved in DMSO (dimethyl sulfoxide) to an initial concentration of 10 μM, diluted at 3 times, with 10 concentrations, single well or multi-well testing was set. […] The compound was diluted by gradient in a 384 well plate to a solution with the final concentration of 1000 times, and then 5 nL of the solution was transferred to a 384 well reaction plate for testing using Echo550.5 nL of 100% DMSO was transferred from the smallest well and the largest well.\n6. The reaction solution was centrifuged at 1000 rpm for 1 minute and incubated at room temperature for 15 minutes.\n7. 2.5 μL 2× substrate solution was added to each well of the reaction plate, centrifuged at 1000 rpm for 1 minute, and incubated at room temperature for 60 minutes.\n8. 5 μL of R1 solution (from AMP-Glo™ Kit) was added to each well of the reaction plate, centrifuged at 1000 rpm for 1 minute and incubated at room temperature for 120 minutes.\n9. 10 μL of R2 solution (from AMP-Glo™ Kit) was added to each well of the reaction plate, centrifuged at 1000 rpm for 1 minute and incubated at room temperature for 30 minutes.\nThe inhibition rate is calculated using the following formula: • inhibition rate %=(maximum signal−compound signal)/(maximum signal−minimum signal)×100 • wherein the “minimum signal” represents the mean value of the negative control well, and the “maximum signal” represents the mean value of the positive control well.\nUsing the log value of concentration as the X-axis and the percentage inhibition rate as the Y-axis, the dose-response curve was fitted using the log(inhibitor) vs. response-variable slope of analysis software GraphPadPrism5 to obtain the inhibitory IC50 value of the compound of the present disclosure on enzyme activity."}, "[2]": {"experiment": "Pharmacokinetic test experiment of mice", "assay_type": "in vivo, ICR mice", "settings": "after oral administration", "procedure": "1. In each administration mode, 9 healthy ICR mice male, weighing 30-35 g, were randomly divided into 3 groups (M1, M2, M3) with 3 mice in each group. […] Feeding uniformly 4 hours after administration."}, "[3]": {"settings": "mice, reported by the literature; cited from earlier work"}, "[4]": {"experiment": "Pharmacokinetic test experiment for rats", "assay_type": "in vivo, SD rats", "settings": "p.o. prodrug compound 7 (5 mg/kg) vs i.v. compound 1 (1 mg/kg)", "procedure": "1. Six SD rats of 6-8 weeks old, male, were taken in each administration mode, and the tested compound was administered by gavage (5 mg/kg) and intravenous injection (1 mg/kg), respectively: fasting for 12 hours before the experiment and drinking water freely. Feeding uniformly 4 hours after administration.\n(§1) Plasma collection and processing: at the above set time points, 150-200 μL of blood was collected via the plexus jugularis or a suitable part, placed in EDTA-K2 test tube, centrifuged at 3500 rpm for 10 min, plasma was separated, and frozen at −20° C. in a refrigerator.\nLC/MS/MS method was used to determine the concentration of compounds in rats plasma. The pharmacokinetic parameters after administration were calculated using a non-compartmental model using Phoenix 8.3 software (Pharsight, USA)."}, "[5]": {"experiment": "Pharmacokinetic test experiment for dogs", "settings": "beagle dogs, p.o. prodrug compound 7 (2 mg/kg) vs i.v. compound 1 (1 mg/kg)", "procedure": "Feeding uniformly 4 hours after administration.\nas §1, with “Blood was collected continuously, with 3 animals collected at each time point. Plasma” for “Plasma”, “1,000” for “150-200”\nLC/MS/MS method was used to determine the concentration of compounds in the beagle dogs plasma. The pharmacokinetic parameters after administration were calculated using a non-compartmental model using Phoenix 8.3 software (Pharsight, USA)."}},
  "data": [
    {"smiles": "COc1ccc2c(Oc3ccc(CCP(=O)(O)O)cc3)ccnc2n1", "note": "[Compound 23]", "values": [
      {"measurement": "IC50", "setting": "[1]", "result": 37, "unit": "nM"}
    ]},
    {"smiles": "COc1ccc2c(Nc3ccc(CP(=O)(O)O)cc3)ncnc2n1", "note": "[Compound 13]", "values": [
      {"measurement": "IC50", "setting": "[1]", "result": 0.94, "unit": "nM"}
    ]},
    {"smiles": "COc1ccc2c(Nc3ccc(CP(=O)(O)O)cn3)ccnc2n1", "note": "[Compound 21]", "values": [
      {"measurement": "IC50", "setting": "[1]", "result": 5, "unit": "nM"}
    ]},
    {"smiles": "COc1ccc2c(Oc3ccc(CP(=O)(OCOC(=O)OC(C)C)OCOC(=O)OC(C)C)cc3)ccnc2n1", "note": "[Compound 8]", "values": [
      {"measurement": "time of conversion of prodrug to parent drug compound 1 in mice plasma", "setting": "[2]", "result": "≤ 5", "unit": "min"}
    ]},
    {"smiles": "COc1cc2ncnc(Nc3ccc(CP(=O)(O)O)cc3)c2cc1OC", "note": "[STF22, reference compound]", "values": [
      {"measurement": "IC50", "setting": "[1]", "result": 63, "unit": "nM"}
    ]},
    {"smiles": "COc1cccc2c(N3CCC(CCP(=O)(O)O)CC3)ncnc12", "note": "[STF32, reference compound]", "values": [
      {"measurement": "half-life of injection administration T1/2", "setting": "[3]", "result": 14, "unit": "min"},
      {"measurement": "IC50", "setting": "[1]", "result": 6.2, "unit": "nM"}
    ]},
    {"smiles": "COc1ccc2c(Nc3ccc(CP(=O)(O)O)nc3)ccnc2n1", "note": "[Compound 20]", "values": [
      {"measurement": "IC50", "setting": "[1]", "result": 2.1, "unit": "nM"}
    ]},
    {"smiles": "COc1ccc2c(Oc3cc(F)c(CP(=O)(O)O)cc3F)ccnc2n1", "note": "[Compound 6]", "values": [
      {"measurement": "IC50", "setting": "[1]", "result": 11, "unit": "nM"}
    ]},
    {"smiles": "COc1ccc2c(Oc3c(F)cc(CP(=O)(O)O)cc3F)ccnc2n1", "note": "[Compound 3]", "values": [
      {"measurement": "IC50", "setting": "[1]", "result": 18, "unit": "nM"}
    ]},
    {"smiles": "COc1ccc2c(Oc3cc(F)c(CP(=O)(O)O)c(F)c3)ccnc2n1", "note": "[Compound 5]", "values": [
      {"measurement": "IC50", "setting": "[1]", "result": 11, "unit": "nM"}
    ]},
    {"smiles": "COc1ccc2c(Oc3ccc(CP(=O)(OCOC(=O)C(C)(C)C)OCOC(=O)C(C)(C)C)cc3)ccnc2n1", "note": "[Compound 7]", "values": [
      {"measurement": "Bioavailability Oral BA (% F)", "setting": "[4]", "result": 40, "unit": "% F"},
      {"measurement": "time of conversion of prodrug to parent drug compound 1 in mice plasma", "setting": "[2]", "result": "≤ 5", "unit": "min"},
      {"measurement": "Bioavailability Oral BA (% F)", "setting": "[5]", "result": 21, "unit": "% F"}
    ]}
  ]
}
